“And” between values parts separate entries of the source, which are not always exact repeats. Equal entries are not always repeated. Where two headings read alike, the source gives them in different places.
How the values were obtained:
[1] = system: SARS2; format: cell-based, SARS-CoV-2; conditions: for Percentage Infection Relative to Appropriate DMSO Control with Avg Background Subtraction: Greiner Celigo plates; for Infection Data, Average, Mean: average of Exp 1-3 (SMW475, SMW477, SMW478)
[2] = system: cells (nuclei count); conditions: for Toxicity Data, Average, Mean: average of Exp 1-3 (SMW475, SMW477, SMW478)

CCN(CC)CCN(Cc1ccccn1)Cc1ccc(C)o1 [SILCS36]
Percentage Infection Relative to Appropriate DMSO Control with Avg Background Subtraction ([1]; Exp 1 (SMW475), 1 uM): 112.32% and 102.95% and 77.60% | Percentage Infection Relative to Appropriate DMSO Control with Avg Background Subtraction ([1]; Exp 1 (SMW475), 5 uM): 103.78% and 96.97% and 70.88% | Percentage Infection Relative to Appropriate DMSO Control with Avg Background Subtraction ([1]; Exp 1 (SMW475), 10 uM): 100.05% and 88.33% and 67.06% | Percentage Infection Relative to Appropriate DMSO Control with Avg Background Subtraction ([1]; Exp 1 (SMW475), 25 uM): 42.48% and 40.16% and 33.52% | Percentage Infection Relative to Appropriate DMSO Control with Avg Background Subtraction ([1]; Exp 2 (SMW477), 1 uM): 136.49% and 133.25% and 131.77% | Percentage Infection Relative to Appropriate DMSO Control with Avg Background Subtraction ([1]; Exp 2 (SMW477), 5 uM): 140.43% and 143.68% and 122.53% | Percentage Infection Relative to Appropriate DMSO Control with Avg Background Subtraction ([1]; Exp 2 (SMW477), 10 uM): 111.26% and 112.57% and 100.88% | Percentage Infection Relative to Appropriate DMSO Control with Avg Background Subtraction ([1]; Exp 2 (SMW477), 25 uM): 70.58% and 67.21% and 40.18% | Percentage Infection Relative to Appropriate DMSO Control with Avg Background Subtraction ([1]; Exp 3 (SMW478), 1 uM): 116.69% and 121.41% and 101.10% | Percentage Infection Relative to Appropriate DMSO Control with Avg Background Subtraction ([1]; Exp 3 (SMW478), 5 uM): 103.27% and 118.27% and 106.75% | Percentage Infection Relative to Appropriate DMSO Control with Avg Background Subtraction ([1]; Exp 3 (SMW478), 10 uM): 99.80% and 128.16% and 117.51% | Percentage Inhibition Average 1 μM ([1]; SARS2, 1 μM): −14.84% | Screening data (Relative infection to DMSO controls) Average 1 μM ([1]; SARS2, 1 μM, 100=DMSO control): 114.84 | Percentage Inhibition Average 5 μM ([1]; SARS2, 5 μM): −11.84% | Screening data (Relative infection to DMSO controls) Average 5 μM ([1]; SARS2, 5 μM, 100=DMSO control): 111.84 | Percentage Inhibition Average 10 μM ([1]; SARS2, 10 μM): −2.85% | Screening data (Relative infection to DMSO controls) Average 10 μM ([1]; SARS2, 10 μM, 100=DMSO control): 102.85 | Percentage Inhibition Average 25 μM ([1]; SARS2, 25 μM): 42.56% | Screening data (Relative infection to DMSO controls) Average 25 μM ([1]; SARS2, 25 μM, 100=DMSO control): 57.44 | Percentage Inhibition Average 50 μM ([1]; SARS2, 50 μM): 72.63% | Screening data (Relative infection to DMSO controls) Average 50 μM ([1]; SARS2, 50 μM, 100=DMSO control): 27.37 | Average (relative infection to DMSO over the 5 tested concentrations) ([1]; SARS2, average over 1 to 50 uM, 100=DMSO control): 82.87 | Infection Data, Average, Mean ([1]; n 9, 1 uM): 114.84% | Infection Data, Average, Mean ([1]; n 9, 5 uM): 111.84% | Infection Data, Average, Mean ([1]; n 9, 10 uM): 102.85% | Infection Data, Average, Mean ([1]; n 9, 25 uM): 57.44% | Infection Data, Average, Mean ([1]; n 9, 50 uM): 27.37% | Relative cell count to DMSO controls, Average 1 μM ([2]; 1 μM, toxicity data, 100=DMSO control): 87.6 | Relative cell count to DMSO controls, Average 5 μM ([2]; 5 μM, toxicity data, 100=DMSO control): 84.91 | Relative cell count to DMSO controls, Average 10 μM ([2]; 10 μM, toxicity data, 100=DMSO control): 88.15 | Relative cell count to DMSO controls, Average 25 μM ([2]; 25 μM, toxicity data, 100=DMSO control): 91.83 | Relative cell count to DMSO controls, Average 50 μM ([2]; 50 μM, toxicity data, 100=DMSO control): 63.21 | Toxicity Data, Average, Mean ([2]; n 9, 1 uM): 87.60% | Toxicity Data, Average, Mean ([2]; n 9, 5 uM): 84.91% | Toxicity Data, Average, Mean ([2]; n 9, 10 uM): 88.15% | Toxicity Data, Average, Mean ([2]; n 9, 25 uM): 91.83% | Toxicity Data, Average, Mean ([2]; n 9, 50 uM): 63.21% | Relative cell count to DMSO controls, Average (for correlation analysis) ([2]; average value over the 5 tested concentrations (1 to 50 uM)): 83.14

— US20240132484A1, “BROAD SPECTRUM ANTIVIRAL COMPOUNDS TARGETING THE SKI COMPLEX” (priority 2020, published 2024)
